In one assay the target is T1, serotonin 1A receptor (Rattus norvegicus, UniProt P19327).
T1 construct: To the receptor fraction of the hippocampus were added a test compound and 0.5 nM of [^3H]; 8-hydroxy-dipropylaminotetralin; from tissue; host or cells: rat hippocampus membrane fraction
T1 sequence (P19327 1-422): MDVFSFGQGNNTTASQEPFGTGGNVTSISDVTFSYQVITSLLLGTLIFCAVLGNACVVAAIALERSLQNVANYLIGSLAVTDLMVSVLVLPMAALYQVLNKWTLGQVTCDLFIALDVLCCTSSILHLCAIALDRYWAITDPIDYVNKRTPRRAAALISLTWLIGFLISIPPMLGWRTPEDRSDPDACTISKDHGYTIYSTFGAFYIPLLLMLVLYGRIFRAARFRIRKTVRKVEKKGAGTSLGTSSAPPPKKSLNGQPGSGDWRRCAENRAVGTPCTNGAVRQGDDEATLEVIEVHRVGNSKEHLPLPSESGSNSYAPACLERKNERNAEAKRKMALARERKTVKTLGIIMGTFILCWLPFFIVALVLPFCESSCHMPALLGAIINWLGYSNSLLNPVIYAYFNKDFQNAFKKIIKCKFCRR
Nature of the assay: Binding test on [3H] 8-hydroxy-dipropylaminotetralin, hippocampus receptor fraction. Also noted: species or system SD rats. Conditions: rat hippocampus receptor fraction, 0.5 nM [3H] 8-OH-DPAT, room temperature 30 min; read-out: 5HT1.

Another assay addresses T2, serotonin 2 receptor (Rattus norvegicus, UniProt P14842).
T2 construct: To the receptor fraction of the cerebral cortex were added a test compound and 0.3 nM of [^3H] ketanserin; from tissue; host or cells: rat cerebral cortex membrane fraction
In words: Binding test on [3H] ketanserin, cerebral cortex receptor fraction. To be noted: 0.3 nM [3H] ketanserin, 37° C. 15 min, read-out: 5HT2. Also noted: species or system SD rats.

Counter-ions that a name gives are not always drawn.

T2 sequence (P14842 whole entry): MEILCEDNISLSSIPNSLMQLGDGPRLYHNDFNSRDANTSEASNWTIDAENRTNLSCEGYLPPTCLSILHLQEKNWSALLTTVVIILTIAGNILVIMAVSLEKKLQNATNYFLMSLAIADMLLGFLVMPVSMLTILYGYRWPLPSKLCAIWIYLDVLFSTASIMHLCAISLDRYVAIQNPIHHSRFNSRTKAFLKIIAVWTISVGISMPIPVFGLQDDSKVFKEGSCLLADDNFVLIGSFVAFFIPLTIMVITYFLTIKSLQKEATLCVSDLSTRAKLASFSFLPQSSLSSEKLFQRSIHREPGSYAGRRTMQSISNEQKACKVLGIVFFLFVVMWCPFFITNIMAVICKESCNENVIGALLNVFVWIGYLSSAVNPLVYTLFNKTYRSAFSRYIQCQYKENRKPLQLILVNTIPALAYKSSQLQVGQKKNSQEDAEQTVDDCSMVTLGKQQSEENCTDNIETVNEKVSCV

Take `CCN1CCN(c2nc(-c3ccc(CC(C)(C)CO)cc3)cc3ccccc23)CC1` [Example 389, 1-(4-Ethylpiperazin-1-yl)-3-[4-(3-Hydroxy-2,2-Dimethylpropyl)Phenyl]Isoquinoline Oxalate]: the Ki was found to be 14.2 nM at serotonin 1A receptor and 7.3 nM on serotonin 2 receptor.
On to `CCN1CCN(c2nc(-c3ccc(C(C)(C)CCO)cc3)cc3ccccc23)CC1` [Example 390, Oxalate], for which the Ki on serotonin 1A receptor is 7.5 nM; at serotonin 2 receptor, 11.1 nM.
The corresponding values for `CCN1CCN(c2nc(-c3ccc(C(O)C(C)(C)CO)cc3)cc3ccccc23)CC1` (stereo not shown) [Example 391, 1-(4-Ethylpiperazin-1-yl)-3-[4-(1,3-Dihydroxy-2,2-Dimethylpropyl)Phenyl]Isoquinoline Dihydrochloride] are 3.6 nM and 12.8 nM.
The corresponding values for `CCN1CCN(c2nc(-c3ccc(CO)c(CO)c3)cc3ccccc23)CC1` [Example 394, 1-(4-Ethylpiperazin-1-yl)-3-[(3,4-Dihydroxymethyl)Phenyl]Isoquinoline Dihydrochloride] are 10.7 nM and 32.9 nM.
With `CCN1CCN(c2nc(-c3ccc(C4COCCO4)cc3)cc3ccccc23)CC1` (stereo not shown) [Example 395, 1-(4-Ethylpiperazin-1-yl)-3-[4-(1,4-Dioxan-2-yl)Phenyl]Isoquinoline Dihydrochloride], the Ki was 37.3 nM on serotonin 1A receptor and 4.8 nM at serotonin 2 receptor.
As to `CCN1CCN(c2nc(-c3ccc(C4CCCO4)cc3)cc3ccccc23)CC1` (stereo not shown) [Example 396, 1-(4-Ethylpiperazin-1-yl)-3-[4-(Tetrahydrofuran-2-yl)Phenyl]Isoquinoline Dihydrochloride], the Ki at serotonin 1A receptor worked out at 50.4 nM; at serotonin 2 receptor, 2.6 nM.
`CCN1CCN(c2nc(-c3ccc([C@H]4CC[C@@H](O)CC4)cc3)cc3ccccc23)CC1` [Example 397, 1-(4-Ethylpiperazin-1-yl)-3-[4-(cis-4-Hydroxycyclohexyl)Phenyl]Isoquinoline Dihydrochloride]: the Ki worked out at 53.3 nM on serotonin 1A receptor and 0.9 nM on serotonin 2 receptor.
Consider `CCN1CCN(c2nc(-c3ccc([C@H]4CC[C@H](O)CC4)cc3)cc3ccccc23)CC1` [Example 398, 1-(4-Ethylpiperazin-1-yl)-3-[4-(trans-4-Hydroxycyclohexyl)Phenyl]Isoquinoline Dihydrochloride], for which the Ki at serotonin 1A receptor turned out to be 8 nM; at serotonin 2 receptor it was 5.9 nM.
As to `CCN1CCN(c2nc(-c3ccc(CC4CCOCC4)cc3)cc3ccccc23)CC1` [Example 399, 1-(4-Ethylpiperazin-1-yl)-3-[4-(tetrahydropyran-4-yl)Methylphenyl]Isoquinoline Dihydrochloride], the Ki on serotonin 1A receptor is 53 nM; at serotonin 2 receptor, 17.2 nM.
With `CCN1CCN(c2nc(-c3ccc(OC[C@@H](C)O)cc3)cc3ccccc23)CC1` [Example 403, 1-(4-ethylpiperazin-1-yl)-3-[4-(2-hydroxypropoxy)phenyl]isoquinoline Dihydrochloride], the Ki on serotonin 1A receptor was determined as 28.4 nM; at serotonin 2 receptor, 0.78 nM.
Take `CCN1CCN(c2nc(-c3ccc(O[C@@H](C)CO)cc3)cc3ccccc23)CC1` [Example 404, 1-(4-ethylpiperazin-1-yl)-3-[4-(2-hydroxy-1-methylethoxy)phenyl]isoquinoline Dihydrochloride]: the Ki on serotonin 1A receptor was determined as 18.8 nM; at serotonin 2 receptor it was 1.07 nM.
In the same order, the values of `CCN1CCN(c2nc(-c3ccnc(OC)c3)cc3ccccc23)CC1` [Example 405, 1-(4-ethylpiperazin-1-yl)-3-(2-methoxypyridin-4-yl)isoquinoline] are 22.6 nM and 10.2 nM.
Take `CCN1CCN(c2nc(-c3ccnc(OCCOC)c3)cc3ccccc23)CC1` [Example 407, 1-(4-ethylpiperazin-1-yl)-3-[2-(2-methoxyethoxy)pyridin-4-yl]isoquinoline]: the Ki on serotonin 1A receptor turned out to be 17.8 nM; at serotonin 2 receptor, 26.1 nM.
As to `CCN1CCN(c2nc(-c3ccc(C(N)=O)cc3)cc3ccccc23)CC1` [Example 408, 1-(4-ethylpiperazin-1-yl)-3-(4-carbamoylphenyl)isoquinoline], the values for the Ki at serotonin 1A receptor and on serotonin 2 receptor were 19.8 nM and 36.3 nM, respectively.
In the same order, the values of `CCN1CCN(c2nc(-c3ccc(C(O)C4CCCCC4)cc3)cc3ccccc23)CC1` (stereo not shown) [Example 409, 1-(4-ethylpiperazin-1-yl)-3-[4-(cyclohexylhydroxymethyl)phenyl]isoquinoline] are 16.4 nM and 9.7 nM.
Turning to `CCN1CCN(c2nc(-c3ccc(C4(O)CCOCC4)cc3)cc3ccccc23)CC1` [Example 410, 1-(4-ethylpiperazin-1-yl)-3-[4-(4-hydroxytetrahydropyran-4-yl)phenyl]isoquinoline], the results for the Ki on serotonin 1A receptor and at serotonin 2 receptor were 21.1 nM and 2.1 nM, respectively.
For `CCN1CCN(c2nc(-c3ccc(C(O)c4nccs4)cc3)cc3ccccc23)CC1` (stereo not shown) [Example 412, 1-(4-ethylpiperazin-1-yl)-3-[4-(1,3-thiazol-2-yl)hydroxymethylphenyl]isoquinoline], the results for the Ki on serotonin 1A receptor and at serotonin 2 receptor were 19.1 nM and 41.4 nM, respectively.
With `CCN1CCN(c2nc(-c3ccc4c(c3)CCC4=O)cc3ccccc23)CC1` [Example 414, 1-(4-ethylpiperazin-1-yl)-3-(1-indanon-5-yl)isoquinoline], the Ki at serotonin 1A receptor amounted to 17.3 nM; at serotonin 2 receptor, 4.2 nM.
As to `CCN1CCN(c2nc(-c3ccc4c(c3)CCC4O)cc3ccccc23)CC1` (stereo not shown) [Example 415, 1-(4-ethylpiperazin-1-yl)-3-(1-hydroxyindan-5-yl)isoquinoline], the values for the Ki at serotonin 1A receptor and on serotonin 2 receptor were 3.6 nM and 11.6 nM, respectively.
For the molecule `CCN1CCN(c2nc(-c3ccc(OCCO)c(C#N)c3)cc3ccccc23)CC1` [Example 417, 1-(4-ethylpiperazin-1-yl)-3-[3-cyano-4-(2-hydroxyethoxy)phenyl]isoquinoline], the values for the Ki at serotonin 1A receptor and on serotonin 2 receptor were 13.4 nM and 4.5 nM, respectively.
The corresponding values for `CCN1CCN(c2nc(-c3cccc(CCCO)c3)cc3ccccc23)CC1` [Example 418, 1-(4-ethylpiperazin-1-yl)-3-[3-(3-hydroxypropyl)phenyl]isoquinoline] are 54.5 nM and 17.4 nM.
Consider `CCN1CCN(c2nc(Cc3ccccc3)cc3ccccc23)CC1` [Example 419, 1-(4-ethylpiperazin-1-yl)-3-benzylisoquinoline], for which the results for the Ki at serotonin 1A receptor and at serotonin 2 receptor were 94.8 nM and 16.4 nM, respectively.
For `CCN1CCN(c2nc(CC(O)c3ccccc3)cc3ccccc23)CC1` (stereo not shown) [Example 420, 1-(4-ethylpiperazin-1-yl)-3-(2-hydroxy-2-phenylethyl)isoquinoline], the values for the Ki on serotonin 1A receptor and at serotonin 2 receptor were 117 nM and 22.4 nM, respectively.
As for `CCN1CCN(c2nc(NC(=O)c3ccccc3)cc3ccccc23)CC1` [Example 421, 3-benzamide-1-(4-ethylpiperazin-1-yl)isoquinoline], the Ki at serotonin 1A receptor was 9.47 nM; on serotonin 2 receptor, 129 nM.
For the molecule `CCN1CCN(c2nc(NS(=O)(=O)c3ccccc3)cc3ccccc23)CC1` [Example 422, 3-benzenesulfoneamide-1-(4-ethylpiperazin-1-yl)isoquinoline], the Ki at serotonin 1A receptor was 5.32 nM; at serotonin 2 receptor, 175 nM.
With `CCN1CCN(c2nc(NS(=O)(=O)c3ccc(OC)cc3)cc3ccccc23)CC1` [Example 423, 1-(4-ethylpiperazin-1-yl)-3-(4-methoxybenzenesulfonamide)isoquinoline], the Ki at serotonin 1A receptor is 9.81 nM; at serotonin 2 receptor, 332 nM.
The corresponding values for `CCN1CCN(c2nc(COc3ccc(OC)cc3)cc3ccccc23)CC1` [Example 424, 1-(4-ethylpiperazin-1-yl)-3-(4-methoxyphenoxymethyl)isoquinoline Hydrochloride] are 61.6 nM and 1.93 nM.
On to `CCN1CCN(c2nc(-c3ccc(OCCO)cc3OC)cc3ccccc23)CC1` [Example 425, 1-(4-ethylpiperazin-1-yl)-3-[4-(2-hydroxyethoxy)-2-methoxyphenyl]isoquinoline], for which the Ki at serotonin 1A receptor is 321 nM; on serotonin 2 receptor, 2.55 nM.
For the molecule `CCN1CCN(c2nc(-c3ccc(OC4CCCCC4O)cc3)cc3ccccc23)CC1` (stereo not shown) [Example 426, 1-(4-ethylpiperazin-1-yl)-3-[4-(2-hydroxycyclohexyloxy)phenyl]isoquinoline Hydrochloride], the Ki at serotonin 1A receptor came to 133 nM; on serotonin 2 receptor, 7.1 nM.
In the same order, the values of `CCN1CCN(c2nc(-c3ccc(OC)cc3)nc3ccccc23)CC1` [Example 427, 4-(4-ethylpiperazin-1-yl)-2-(4-methoxyphenyl)quinazoline Dihydrochloride] are 80.9 nM and 300 nM.
For `CCN1CCN(c2nc(/C=C/c3cccc(OCCO)c3)cc3ccsc23)CC1` [Example 430, 7-(4-ethylpiperazin-1-yl)-5-[3-(2-hydroxyethoxy)styryl]thieno [2,3-c]pyridine hydrochloride], the Ki at serotonin 1A receptor came to 2.48 nM; on serotonin 2 receptor, 11.7 nM.
In the case of `CCN1CCN(c2nc(/C=C/c3ccc(OCCO)cc3)cc3ccsc23)CC1` [Example 431, 7-(4-ethylpiperazin-1-yl)-5-[4-(2-hydroxyethoxy)styryl]thieno[2,3-c]pyridine hydrochloride], the Ki at serotonin 1A receptor worked out at 1.98 nM; on serotonin 2 receptor, 2.11 nM.

The values above are taken from patent US6875761B2 (Eisai Co., Ltd., priority 1997, dated 2005).
